Measurements reported in article PMC9687241 (Biomolecules, 2022).

Key:
[1] = target: T1, SARS-CoV-2 M^pro (Severe acute respiratory syndrome coronavirus 2, UniProt P0DTD1); type: biochemical; settings: 0.2 µM M^pro, 2 h incubation at r.t., 4 µM substrate, Hill equation fit; read-out: Inhibition constants, Ki
[2] = target: T1, SARS-CoV-2 M^pro; assay: ESI MS of metallodrug-protein adduct formation; type: binding; settings: protein-to-metal ratio 1:3 (1:1 for Au(PEt3)Br), 37 °C, 4 h incubation (up to 24 h)

Compound | Ki [1] [nM] | protein metalation / adduct formation (ESI MS) [2]
CCCC[n+]1ccn(C)[c]1[Au-][Cl] [Au(NHC)Cl] | 870 ± 40 | formation of a mono adduct
CC[P](CC)(CC)[Au][Br] [Au(PEt3)Br] | 440 ± 22 | –
CCP(CC)CC.[Au+].[Cl-] [Au(PEt3)Cl] | 660 ± 26 | –
CC[P](CC)(CC)[Au][I] [Au(PEt3)I] | 2120 ± 96 | –
